Measured values published in patent US8492550B2, “Hydroxyalkanyl amides as modulators of chemokine receptor activity” (Bristol-Myers Squibb Company, priority 2008, dated 2013).

Target: T1, CCR1 (Homo sapiens, UniProt P32246)
T1 construct: the THP-1 cell line, which expresses the endogenous CCR1 receptor; endogenous in cells; host or cells: THP-1 (human monocytic cell line); human PBMC or human monocytes are named as alternatives
T1 sequence (P32246 1-355): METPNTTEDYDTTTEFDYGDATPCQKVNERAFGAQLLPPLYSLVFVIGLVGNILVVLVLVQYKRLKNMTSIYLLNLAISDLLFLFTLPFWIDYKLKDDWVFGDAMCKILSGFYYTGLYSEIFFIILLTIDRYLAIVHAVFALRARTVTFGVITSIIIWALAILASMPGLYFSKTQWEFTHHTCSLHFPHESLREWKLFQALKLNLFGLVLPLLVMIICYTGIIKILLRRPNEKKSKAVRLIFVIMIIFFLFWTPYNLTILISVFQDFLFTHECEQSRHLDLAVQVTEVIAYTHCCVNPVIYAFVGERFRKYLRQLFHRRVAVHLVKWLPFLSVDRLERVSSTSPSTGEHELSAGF
Assay: Antagonism of 125I-MIP-1α binding to human THP-1 cells (CCR1 binding)
Conditions: THP-1 cells expressing endogenous CCR1; 50 pM 125I-labeled human MIP-1α; room temperature, thirty minutes; read-out: CCR1 Binding Ki (n = 1 unless otherwise noted)
Experimental: Antagonism of MIP-1α Binding to Human THP-1 Cells
Compounds of the present invention have activity in the antagonism of MIP-1α binding to human THP-1 cells described here.
Millipore filter plates (#MABVN1250) are treated with 100 μl of binding buffer (0.5% bovine serum albumin, 20 mM HEPES buffer and 5 mM magnesium chloride in RPMI 1640 media) for thirty minutes at room temperature. To measure binding, 50 μl of binding buffer, with or without a known concentration of compound, is combined with 50 μl of ^125-I labeled human MIP-1α (to give a final concentration of 50 pM radioligand) and 50 μl of binding buffer containing 5×10^5 cells. Cells used for such binding assays can include the THP-1 cell line, which expresses the endogenous CCR1 receptor, or human peripheral blood mononuclear cells, isolated by Ficoll-Hypaque gradient centrifugation, or human monocytes (Weiner et al., J. Immunol. Methods, 36:89 (1980)). The mixture of compound, cells and radioligand is incubated at room temperature for thirty minutes. Plates are placed onto a vacuum manifold, vacuum applied, and the plates washed three times with binding buffer containing 0.5M NaCl. The plastic skirt is removed from the plate, the plate allowed to air dry, the wells punched out and counted. […]

SMILES | Ki [µM]
CCC(NC(=O)C1CCCC1)C(O)C1CCN(c2ccc(Cl)cc2)CC1 (single isomer, unassigned) [Example 1, N-(1-(1-(4-Chlorophenyl)piperidin-4-yl)-1-hydroxybutan-2-yl)cyclopentanecarboxamide] | 0.93
CCC(NC(=O)C1CCCC1)C(O)C1CCN(c2ccc(Cl)cc2)CC1 (single isomer, unassigned) [Example 2, N-(1-(1-(4-Chlorophenyl)piperidin-4-yl)-1-hydroxybutan-2-yl)cyclopentanecarboxamide] | 0.354
